Values belong to the molecule of their own block, whether it stands above or below them. Residues, ends and D or L forms follow the SMILES beside them.
How the values were obtained:
collagenase [1] = assay: Anti-collagenase activity, fluorescein-derivatized gelatin; type: biochemical; conditions: collagenase 0.4 U/mL, 2 hours
Description: Different concentrations of the peptide Ac-L-Ala-L-Thr-L-Asn-L-Thr-OH (Ac-(SEQ ID NO: 16)-OH) were incubated in a 96-well plate together with fluorescein-derivatized gelatin, a fluorescent marker. Next, collagenase (0.4 U/mL) was added and incubated at room temperature protected from sunlight for 2 hours, after which the fluorescence (λexc=495 nm and λem=515 nm) was measured at different points, thus the breakage in the derivatized gelatin could be quantified. As a positive control 1,10-phenanthroline was used, a metal chelator which acts as an inhibitor of metalloproteases.

[2] = test system: IL-6 release induced by LL-37 in primary human keratinocytes; assay: Inhibition of the release of IL-6 induced by LL-37 in primary human keratinocytes (ELISA); type: cell-based; conditions: carrier = 100%
Description: (§1) Solutions of the compounds of the invention were prepared in Eppendorf tubes at the desired concentrations in complete Epilife® medium with and without LL-37 at 50 μg/mL in a final volume of 250 μL. The mixtures were incubated in rotation for 1 hour at room temperature. After the preincubation hour the samples were collected and they were given a quick pulse in the centrifuge to push all the solution to the bottom of the tube. Without removing the incubation medium, it was added to the 50 μL/well cells of the previous mixtures in quadruplicate and the plate was incubated at 37° C. in a CO2 incubator for 1 hour. After the hour of incubation, 50 μL/well of complete Epilife® medium were added. They were incubated for another 5 hours to allow the release of pro-inflammatory cytokines induced by LL-37 for their subsequent quantification by ELISA. After the 5 hours, the […] of supernatants were collected with the multi-channel pipette and passed to a new 96-well plate and the quantity of IL-6 and IL-8 released was determined by the Human IL-6 ELISA Ready-SET-GO!® and Human IL-8 ELISA Ready-SET-GO!® commercial kits (eBioscience, Inc.) following the supplier's instructions. The absorbency of each well was determined by reading a Multiskan Ascent Reader spectrophotometer at 450 nm correcting for each determination with its corresponding reading at 570 nm. The standardized relative levels of IL-6 and IL-8 were calculated with regard to the absorbency corresponding to the treatment of the cells with carrier. Next, the total number of cells per well was quantified with Cristal Violeta, in order to be able to calculate the percentage of interleukins released per cell.
(§2) In table 4 the results obtained from the release of IL-8 are detailed.

[3] = test system: IL-8 release induced by LL-37 in primary human keratinocytes; assay: Inhibition of the release of IL-8 induced by LL-37 in primary human keratinocytes (ELISA); type: cell-based; conditions: carrier = 100%
Description: as §1, §2

tyrosinase [4] = assay: Anti-tyrosinase activity, L-DOPA substrate; type: biochemical
Description: Different concentrations of the peptide […]-OH (Ac-(SEQ ID NO: 16)-OH) were incubated in a 96-well plate together with L-DOPA in a HEPES buffer for 30 minutes at 37° C. After incubation, the tyrosinase enzyme was added and incubated for 10 minutes. The reaction was stopped freezing the plate at -20° C. for 5 minutes, after which the absorbency was measured at λexc=490 nm in a microplate reader. As a positive control kojic acid was added, a substance with known anti-tyrosinase activity.

[5] = test system: human epidermal melanocytes; assay: Inhibition of melanogenesis in human epidermal melanocytes; type: cell-based; conditions: repeated treatment to day 10, control (culture medium) = 100
Description: Primary human melanocytes were cultivated in medium 254 supplemented by HMGS and antibiotics. The cells were grown for 72 hours after which the medium was changed to 254 supplemented by HMGS-2 and antibiotics. The cells were grown until confluence for 2 weeks, changing the medium every 2-3 days. After two weeks, the cells were trypsinized and seeded in 6-well plates. After being incubated for a whole night at 37° C. and 5% of CO2, the first treatment with the peptide was carried out at different concentrations. As a negative control, only medium was added. The treatment was repeated on days 3, 6, 8 and 10, after which the cells were trypsinized and the number counted with a cell counter. Melanin was quantified by measuring the absorbency at 450 nm with a microplate reader and the value was standardized with regard to the total number of cells per well, expressed as picograms of melanin per cell from a calibration line prepared with synthetic melanin dissolved in 1 N NaOH with 10% DMSO.

[6] = target: LL-37, cathelicidin C-terminal antimicrobial peptide (UniProt P49913); assay: cell-based or functional assay
collagenase [7] = assay: cell-based or functional assay
tyrosinase [8] = assay: cell-based or functional assay
[9] = peptide 0.025 mg/mL + LL-37 0.05 mg/ml
[10] = peptide 0.1 mg/mL + LL-37 0.05 mg/ml
[11] = peptide 0.5 mg/mL + LL-37 0.05 mg/ml

Molecule: c1cnc2c(c1)ccc1cccnc12 [1,10-phenanthroline, reference compound]
% collagenase inhibition (collagenase [1]; 40 μg/mL): 95.19%

Molecule: CC(=O)N[C@@H](C)C(=O)N[C@H](C(=O)N[C@@H](CC(N)=O)C(=O)N[C@H](C(=O)O)[C@@H](C)O)[C@@H](C)O [Ac-L-Ala-L-Thr-L-Asn-L-Thr-OH] (Ac-ATNT-OH)
% IL-6 [2, 9]: 107.25%
% IL-6 [2, 10]: 94.65%
% IL-6 [2, 11]: 92.90%
% IL-8 [3, 9]: 132.70%
% IL-8 [3, 10]: 124.76%
% IL-8 [3, 11]: 109.39%
% collagenase inhibition (collagenase [1]; 2 mg/mL): 29.21%
% collagenase inhibition (collagenase [1]; 10 mg/mL): 100%
% tyrosinase inhibition (tyrosinase [4]; 2 mg/mL): 38.23%
% tyrosinase inhibition (tyrosinase [4]; 3 mg/mL): 76.01%
% tyrosinase inhibition (tyrosinase [4]; 4 mg/mL): 86.45%
% melanin (pg/cel) ([5]; 0.25 mg/mL): 45.7 ± 3.2%
% melanin (pg/cel) ([5]; 0.625 mg/mL): 55.8 ± 2.8%

Molecule: Ac-L-Ala-L-Thr-L-Asn-L-Thr-OH (Ac-(SEQ ID NO: 16)-OH) (peptide)
% IL-6 released by primary human keratinocytes (ELISA), peptide 0.025 mg/mL; carrier 100%, LL-37 0.05 mg/ml alone 122.28% [6]: 107%
% IL-6 released by primary human keratinocytes (ELISA), peptide 0.1 mg/mL + LL-37 0.05 mg/ml; carrier 100%, LL-37 alone 122.28% [6]: 94.7%
% IL-6 released by primary human keratinocytes (ELISA), peptide 0.5 mg/mL + LL-37 0.05 mg/ml; carrier 100%, LL-37 alone 122.28% [6]: 92.9%
% IL-8 released by primary human keratinocytes (ELISA), peptide 0.025 mg/mL + LL-37 0.05 mg/ml; carrier 100%, LL-37 alone 142.65% [6]: 133%
% IL-8 released by primary human keratinocytes (ELISA), peptide 0.1 mg/mL + LL-37 0.05 mg/ml; carrier 100%, LL-37 alone 142.65% [6]: 125%
% IL-8 released by primary human keratinocytes (ELISA), peptide 0.5 mg/mL + LL-37 0.05 mg/ml; carrier 100%, LL-37 alone 142.65% [6]: 109%
% collagenase inhibition (cleavage of fluorescein-derivatized gelatin, collagenase 0.4 U/mL), peptide 2 mg/mL (collagenase [7]): 29.2%
% collagenase inhibition (cleavage of fluorescein-derivatized gelatin, collagenase 0.4 U/mL), peptide 10 mg/mL (collagenase [7]): 100%
% tyrosinase inhibition (L-DOPA oxidation, absorbance 490 nm), peptide 2 mg/mL (tyrosinase [8]): 38.2%
% tyrosinase inhibition (L-DOPA oxidation, absorbance 490 nm), peptide 3 mg/mL (tyrosinase [8]): 76%
% tyrosinase inhibition (L-DOPA oxidation, absorbance 490 nm), peptide 4 mg/mL (tyrosinase [8]): 86.5%

Molecule: Ac-L-Ser-L-Val-L-Arg-L-Val-L-Ala-L-Val-NH2 (Ac-SVRVAV-NH2)
% IL-6 [2, 9]: 108.35%
% IL-6 [2, 10]: 95.96%
% IL-6 [2, 11]: 93.15%
% IL-8 [3, 9]: 132.92%
% IL-8 [3, 10]: 125.05%
% IL-8 [3, 11]: 109.24%

Molecule: LL-37: cathelicidin C-terminal antimicrobial peptide, used to induce release of IL-6 and IL-8 (LLGDFFRKSKEKIGKEFKRIVQRIKDFLRNLVPRTES; Antibacterial peptide LL-37; UniProt P49913 134-170, looked up) [reference compound]
% IL-6 ([2]; LL-37 0.05 mg/ml alone (positive control)): 122.28%
% IL-8 ([3]; LL37 0.05 mg/ml alone (positive control)): 142.65%

Results, then the molecule that gave them:

% tyrosinase inhibition (tyrosinase [4]; 140 μg/mL): 85.79%
Molecule: O=c1cc(CO)occ1O [kojic acid, reference compound]

% IL-6 released by primary human keratinocytes (ELISA), peptide 0.025 mg/mL + LL-37 0.05 mg/ml; carrier 100%, LL-37 alone 122.28% [6]: 108%
% IL-6 released by primary human keratinocytes (ELISA), peptide 0.1 mg/mL + LL-37 0.05 mg/ml; carrier 100%, LL-37 alone 122.28% [6]: 96%
% IL-6 released by primary human keratinocytes (ELISA), peptide 0.5 mg/mL + LL-37 0.05 mg/ml; carrier 100%, LL-37 alone 122.28% [6]: 93.2%
% IL-8 released by primary human keratinocytes (ELISA), peptide 0.025 mg/mL + LL-37 0.05 mg/ml; carrier 100%, LL-37 alone 142.65% [6]: 133%
% IL-8 released by primary human keratinocytes (ELISA), peptide 0.1 mg/mL + LL-37 0.05 mg/ml; carrier 100%, LL-37 alone 142.65% [6]: 125%
% IL-8 released by primary human keratinocytes (ELISA), peptide 0.5 mg/mL + LL-37 0.05 mg/ml; carrier 100%, LL-37 alone 142.65% [6]: 109%
Molecule: Ac-L-Ser-L-Val-L-Arg-L-Val-L-Ala-L-Val-NH2 (Ac-(SEQ ID NO: 2)-NH2) (peptide)

From patent US9725483B2, “Compounds for the treatment and/or care of the skin and/or mucous membranes and their use in cosmetic or pharmaceutical compositions” (LUBRIZOL ADVANCED MATERIALS, INC., priority 2012, dated 2017)
